Entries after “also recorded” stand apart in the source; their conditions may differ.
What was measured:
cervix of pregnant rats = assay: Cervical ripening assessed in vivo by collagen light-induced fluorescence (LIF) with the collascope; parameters: species or system Sprague-Dawley rats
Description: (§1) Nonpregnant and timed-pregnant Sprague-Dawley rats (200-250 g) from Charles-River Laboratories (Wilmington, Mass., USA) were delivered to animal care facilities on day 12 of gestation (day 1 being the day when a sperm plug was observed). The animals were housed separately, with free access to food and water and maintained on a constant 12-hour light-dark cycle. Control pregnant rats were spontaneously delivering on day 22 and 23 of gestation. For the measurements with the collascope the animals were anaesthetized (interperitoneal (i.p). injection) with a combination of xylazine (Gemini, Burns Veterinary Supply Inc, Rockville Center, N.Y., USA) and ketamine HCl (Ketaset; Fort Dodge Laboratories Inc, Fort Dodge, Iowa, USA). The animals were randomly allocated to one of the groups and sacrificed by carbon dioxide inhalation on day 3, 5, 7 and 10 postpartum or on day 25 of pregnancy in the groups with delayed delivery. All procedures were approved by the Animal Care and Use Committee of the St. Joseph's Hospital and Medical Center in Phoenix.
(§2) Prior to any treatment LIF measurements were made in control rats throughout pregnancy and postpartum to estimate the LIF profile during gestation (see FIG. 1). Pregnant rats (N=6/group) were treated (see FIG. 2), when not otherwise mentioned (see FIG. 3), from day 13 of pregnancy until delivery. Single daily treatments were performed at 8 a.m. and twice a day treatments at 8 a.m. and 8 p.m. All single injections (4 mg P4, 10 mg 17P, 2 mg promegestone (R5020)) were by the subcutaneous route (s.c.) in sesame oil (0.2 ml), which was also used for the controls. Vaginal gels were applied twice a day with a blunt ball-top needle deep into the vagina. Crinone was used for the P4 vaginal group (equivalent volumes of Crinone were used for 2-15 mg P4/treatment), all data presented show the results of the highest dose (total daily dose of 30 mg P4=⅓ of a applicator of 8% Crinone that contains 90 mg P4). For the vaginal promegestone (R5020) group micronized promegestone (R5020) (1 mg/treatment) was mixed into 0.18 ml of Replens. The control rats for the vaginal groups were treated with Replens (0.18 ml/treatment). For oral P4 treatments (15 mg, bid, vehicle sesame oil or H2O, volume 1 ml) gavage was used. For topical P4 treatment (15 mg, bid, P4 in 1 ml sesame oil, fish oil or in Replens) the drug was applied on the back of animals that were shaved on day 13, 17 and 21. In some animals (N=6) RU-486 (3 mg in 0.2 ml sesame oil) was injected subcutaneously once on day 16 of gestation.
The amount of cervical collagen was evaluated in vivo (only in group subcutaneously P4, vaginal P4, subcutaneously 17P, vaginal promegestone (R5020), subcutaneously RU-486) by measurement of the auto-fluorescent properties of cross-linked collagen with a new prototype of an instrument, termed collascope (Reproductive Research Technologies, Houston, Tex., USA), as used previously with an earlier prototype.
After insertion of a small speculum into the vagina of the anesthetized animal, the optical probe of the collascope was placed on the surface of the exocervix. […] The exposure time for excitation was 100 msec. The average of 20 measurements of the detected fluorescent intensity (photon count) at 390 nm was used for each animal at any given time. Measurements of cervical light-induced fluorescence (LIF) were performed on nonpregnant animals once and in pregnant animals every other day starting at day 13 of gestation until delivery and on postpartum day 3 and/or postpartum day 5 (see FIGS. 2 and 3), and for some animals also on postpartum days 7 and 10 (see FIGS. 1 and 3).
The cervical LIFs obtained at different times of gestation (FIG. 1) were compared using one-way analysis of variance (ANOVA) and multiple pairwise comparison procedures (Holm-Sidak). […]

pregnant rats = assay: Time of delivery of timed-pregnant rats (hours after 8 a.m. of day 22 of gestation); type: in vivo, Sprague-Dawley rats
Description: as §1, §2
Times of delivery (see also FIG. 4) of controls and various treatment groups were determined as hours after 8 a.m. of day 22 of gestation (FIG. 5). The expulsion of one pup was defined as delivery.
The cervical LIFs obtained at different times of gestation (FIG. 1) were compared using one-way analysis of variance (ANOVA) and multiple pairwise comparison procedures (Holm-Sidak). Student's t-test was used to compare the LIF results of a treatment group to its specific control group at any time in gestation and postpartum and also to determine the differences in delivery times (FIGS. 2, 3 and 5). A two-tailed probability value of P<0.05 was considered statistically significant.
FIG. 15 depicts delay of delivery times in timed pregnant rats treated with progesterone (P4) with different routes and vehicles. Treatment was started on day 13 of gestation and continued until delivery of pups or until delivery was blocked at […] (day 25) past day 22 of gestation. 8 am on day 22 is noted as hour 0 and delay is compared to control group treated only with vehicle. Treatment groups included: P4 in fish oil (vaginal, nasal, injection and topical groups), P4 in cocoa butter (rectal) and P4 in sesame oil (oral). All treatment groups received a total daily dose of 30 mg P4/day except the nasal and subcutaneous injection group which received 1 mg/day and 4 mg/day, respectively. […]

[1] = s.c. injection daily in sesame oil from day 13 (P4 4 mg, 17P 10 mg, R5020 2 mg)
[2] = RU-486 3 mg s.c. once on day 16

SMILES	cervical LIF / cervical ripening compared with vehicle controls (cervix of pregnant rats; vaginal promegestone (R5020) 1 mg bid in Replens from day 13)	effect on delivery (pregnant rats; [1])	effect on delivery (pregnant rats; vaginal bid from day 13 (P4 15 mg as Crinone; R5020 1 mg in Replens))	cervical LIF / cervical ripening compared with vehicle controls (cervix of pregnant rats; 17P 10 mg s.c. daily from day 13)	cervical ripening / softening (cervix of pregnant rats; [2])	cervical LIF compared with vehicle controls (cervix of pregnant rats; RU-486 3 mg s.c. once on day 16, 24 and 72 hours after treatment)	cervical LIF compared with vehicle controls (cervix of pregnant rats; RU-486 3 mg s.c. once on day 16, 5 days after treatment)	animals delivered after 24 hours (pregnant rats; [2])	delivery of the remaining two animals after treatment (pregnant rats; [2]) [h]	time of induced preterm delivery after injection (pregnant rats; [2]) [h]
CCC(=O)[C@@]1(C)CC[C@H]2[C@@H]3CCC4=CC(=O)CCC4=C3CC[C@@]21C [promegestone (R5020), Promegestone]	cervix is rigid; also recorded: significantly higher (P<0.05) in the promegestone (R5020) treated group (until day 19 only); also recorded: delayed cervical ripening but not at term immediately preceding delivery; also recorded: only attenuated until day 19 of gestation; also recorded: not significantly different from controls; also recorded: significant differences are observed only until day 19	inhibits delivery; also recorded: completely block delivery; also recorded: prevented delivery; also recorded: completely inhibited	inhibits delivery; also recorded: completely blocked delivery; also recorded: prevented delivery; also recorded: completely inhibited; also recorded: delivery is blocked	–	–	–	–	–	–	–
CCCCCC(=O)O[C@]1(C(C)=O)CC[C@H]2[C@@H]3CCC4=CC(=O)CC[C@]4(C)[C@H]3CC[C@@]21C [17P, 17-alpha-hydroxyprogesterone caproate]	–	Delivery was not changed; also recorded: does not block delivery at all; also recorded: no significant effect on delaying term delivery	–	cervix is rigid; also recorded: significantly higher (P<0.05) in the 17P treated group (until day 19 only); also recorded: delayed cervical ripening but not at term immediately preceding delivery; also recorded: only attenuated until day 19 of gestation; also recorded: partly delays ripening; also recorded: not significantly different from controls at day 21; also recorded: significant differences are only observed until day 19 of gestation	–	–	–	–	–	–
CC#C[C@]1(O)CC[C@H]2[C@@H]3CCC4=CC(=O)CCC4=C3[C@@H](c3ccc(N(C)C)cc3)C[C@@]21C [RU-486, mifepristone]	–	–	–	–	softened the cervix during preterm delivery; also recorded: cervical ripening occurs after 24 hours followed by preterm delivery	significantly lower (P<0.05)	higher	4 of 6	≤ 48	24 to 48
